Test results published in the kinase profiling compilation of Christmann-Franck et al. (2016).

How the values were obtained:
Test in all cases: KINOMEscan competition binding
Settings in all cases: compound 0.5 µM
MAP4K1 (human) = MAP4K1 (human) (UniProt Q92918)
TGFBR1 (human) = TGFBR1 (human) (UniProt P36897)
NEK7 (human) = NEK7 (human) (UniProt Q8TDX7)
SYK (human) = SYK (human) (UniProt P43405)
MAST1 (human) = MAST1 (human) (UniProt Q9Y2H9)
CaMK1 (human) = CaMK1 (human) (UniProt Q14012)
CDC42BPA (human) = CDC42BPA (human) (UniProt Q5VT25)
PLK3 (human) = PLK3 (human) (UniProt Q9H4B4)
PKN3 (M.tuberculosis) = PKN3 (M.tuberculosis) (UniProt Q6P5Z2)
RET (human) = RET (human) (UniProt P07949)
CAMK4 (human) = CAMK4 (human) (UniProt Q16566)
MAPKAPK2 (human) = MAPKAPK2 (human) (UniProt P49137)
STK25 (human) = STK25 (human) (UniProt O00506)
CSNK1G3 (human) = CSNK1G3 (human) (UniProt Q9Y6M4)
TNK1 (human) = TNK1 (human) (UniProt Q13470)
AXL (human) = AXL (human) (UniProt P30530)
RPS6KA4 KD1 (human) = RPS6KA4 KD1 (human) (UniProt O75676)
SRPK2 (human) = SRPK2 (human) (UniProt P78362)
DYRK1A (human) = DYRK1A (human) (UniProt Q13627)
KDR (human) = KDR (human) (UniProt P35968)
INSR (human) = INSR (human) (UniProt P06213)
STK32B (human) = STK32B (human) (UniProt Q9NY57)
CSNK1E (human) = CSNK1E (human) (UniProt P49674)
CAMK2B (human) = CAMK2B (human) (UniProt Q13554)
PTK6 (human) = PTK6 (human) (UniProt Q13882)
LTK (human) = LTK (human) (UniProt P29376)
MAP2K5 (human) = MAP2K5 (human) (UniProt Q13163)
DAPK2 (human) = DAPK2 (human) (UniProt Q9UIK4)
SRPK1 (human) = SRPK1 (human) (UniProt Q96SB4)
[1] = tested on: MET (human), P08581 [M1250T]
PTK2 (human) = PTK2 (human) (UniProt Q05397)
MAP3K10 (human) = MAP3K10 (human) (UniProt Q02779)
TBK1 (human) = TBK1 (human) (UniProt Q9UHD2)
DAPK3 (human) = DAPK3 (human) (UniProt O43293)
PIM2 (human) = PIM2 (human) (UniProt Q9P1W9)
MARK4 (human) = MARK4 (human) (UniProt Q96L34)
DMPK (human) = DMPK (human) (UniProt Q09013)
EPHB3 (human) = EPHB3 (human) (UniProt P54753)
MAP4K5 (human) = MAP4K5 (human) (UniProt Q9Y4K4)
KIT (human) = KIT (human) (UniProt P10721)
CSNK1G2 (human) = CSNK1G2 (human) (UniProt P78368)
ADCK3 (human) = ADCK3 (human) (UniProt Q8NI60)

Chain of CDC42BPA (human) (Q5VT25 whole entry, looked up): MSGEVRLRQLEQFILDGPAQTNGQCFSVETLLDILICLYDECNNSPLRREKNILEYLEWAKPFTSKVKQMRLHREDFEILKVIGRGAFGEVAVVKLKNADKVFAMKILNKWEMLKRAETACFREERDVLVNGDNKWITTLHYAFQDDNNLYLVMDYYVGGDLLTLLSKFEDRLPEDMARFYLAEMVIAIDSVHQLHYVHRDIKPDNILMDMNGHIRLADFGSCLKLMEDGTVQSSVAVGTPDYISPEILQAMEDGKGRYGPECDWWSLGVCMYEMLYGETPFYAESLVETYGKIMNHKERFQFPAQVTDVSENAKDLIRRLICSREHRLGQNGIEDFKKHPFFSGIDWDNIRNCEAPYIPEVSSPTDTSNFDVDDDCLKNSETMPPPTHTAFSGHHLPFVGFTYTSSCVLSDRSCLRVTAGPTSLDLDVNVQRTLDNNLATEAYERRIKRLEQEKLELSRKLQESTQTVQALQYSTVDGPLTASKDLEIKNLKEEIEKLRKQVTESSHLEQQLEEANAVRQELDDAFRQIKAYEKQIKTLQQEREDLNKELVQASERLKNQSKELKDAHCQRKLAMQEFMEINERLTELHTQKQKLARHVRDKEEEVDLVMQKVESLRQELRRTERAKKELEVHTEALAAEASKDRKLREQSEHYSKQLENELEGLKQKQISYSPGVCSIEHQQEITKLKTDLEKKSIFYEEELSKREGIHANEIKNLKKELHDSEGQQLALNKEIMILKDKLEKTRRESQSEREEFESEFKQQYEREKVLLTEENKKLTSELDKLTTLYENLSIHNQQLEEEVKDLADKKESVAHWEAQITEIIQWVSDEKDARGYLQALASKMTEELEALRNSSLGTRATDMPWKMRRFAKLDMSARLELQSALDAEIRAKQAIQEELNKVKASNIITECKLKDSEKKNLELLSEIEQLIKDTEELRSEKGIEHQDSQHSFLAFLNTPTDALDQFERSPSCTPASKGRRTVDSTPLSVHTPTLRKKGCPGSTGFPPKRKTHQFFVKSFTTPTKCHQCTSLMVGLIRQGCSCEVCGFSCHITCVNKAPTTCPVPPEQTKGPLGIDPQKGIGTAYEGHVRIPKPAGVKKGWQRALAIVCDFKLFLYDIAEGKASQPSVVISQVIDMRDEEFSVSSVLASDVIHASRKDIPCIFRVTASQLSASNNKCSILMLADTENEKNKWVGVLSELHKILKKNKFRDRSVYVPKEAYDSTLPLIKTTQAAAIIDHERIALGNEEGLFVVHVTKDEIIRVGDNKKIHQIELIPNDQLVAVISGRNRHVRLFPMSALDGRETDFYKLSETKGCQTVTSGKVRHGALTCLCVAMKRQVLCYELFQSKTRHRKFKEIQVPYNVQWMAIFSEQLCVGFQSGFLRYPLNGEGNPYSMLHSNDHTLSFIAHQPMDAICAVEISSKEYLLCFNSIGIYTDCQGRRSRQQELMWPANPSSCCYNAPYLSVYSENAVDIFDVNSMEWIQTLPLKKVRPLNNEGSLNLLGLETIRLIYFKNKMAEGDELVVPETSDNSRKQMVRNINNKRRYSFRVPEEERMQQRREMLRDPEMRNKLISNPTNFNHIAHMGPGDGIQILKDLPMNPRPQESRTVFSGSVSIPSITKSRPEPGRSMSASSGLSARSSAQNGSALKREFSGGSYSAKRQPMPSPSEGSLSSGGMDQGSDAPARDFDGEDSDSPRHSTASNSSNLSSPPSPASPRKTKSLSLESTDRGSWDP
Chain of PIM2 (human) (Q9P1W9 whole entry, looked up): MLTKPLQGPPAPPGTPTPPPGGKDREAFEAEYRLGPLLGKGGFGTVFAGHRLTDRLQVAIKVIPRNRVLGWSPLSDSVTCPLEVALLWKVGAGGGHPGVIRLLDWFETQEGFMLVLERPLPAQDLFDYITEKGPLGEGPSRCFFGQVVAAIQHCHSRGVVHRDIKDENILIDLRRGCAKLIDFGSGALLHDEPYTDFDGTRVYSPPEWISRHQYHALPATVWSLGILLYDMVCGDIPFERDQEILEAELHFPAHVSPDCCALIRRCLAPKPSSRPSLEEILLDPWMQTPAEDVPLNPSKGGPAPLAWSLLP
Chain of MAP2K5 (human) (Q13163 whole entry, looked up): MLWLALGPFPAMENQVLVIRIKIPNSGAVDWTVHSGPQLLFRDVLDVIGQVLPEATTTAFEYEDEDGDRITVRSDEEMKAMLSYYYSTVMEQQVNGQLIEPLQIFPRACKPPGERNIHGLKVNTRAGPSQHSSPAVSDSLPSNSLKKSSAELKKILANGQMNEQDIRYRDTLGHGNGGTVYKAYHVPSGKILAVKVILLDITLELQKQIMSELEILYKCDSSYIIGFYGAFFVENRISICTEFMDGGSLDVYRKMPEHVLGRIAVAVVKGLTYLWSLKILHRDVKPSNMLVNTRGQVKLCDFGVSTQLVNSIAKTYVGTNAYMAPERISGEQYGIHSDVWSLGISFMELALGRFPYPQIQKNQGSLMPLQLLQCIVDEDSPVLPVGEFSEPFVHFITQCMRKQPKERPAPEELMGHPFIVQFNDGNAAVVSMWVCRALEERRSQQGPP
Chain of PKN3 (M.tuberculosis) (Q6P5Z2 whole entry, looked up): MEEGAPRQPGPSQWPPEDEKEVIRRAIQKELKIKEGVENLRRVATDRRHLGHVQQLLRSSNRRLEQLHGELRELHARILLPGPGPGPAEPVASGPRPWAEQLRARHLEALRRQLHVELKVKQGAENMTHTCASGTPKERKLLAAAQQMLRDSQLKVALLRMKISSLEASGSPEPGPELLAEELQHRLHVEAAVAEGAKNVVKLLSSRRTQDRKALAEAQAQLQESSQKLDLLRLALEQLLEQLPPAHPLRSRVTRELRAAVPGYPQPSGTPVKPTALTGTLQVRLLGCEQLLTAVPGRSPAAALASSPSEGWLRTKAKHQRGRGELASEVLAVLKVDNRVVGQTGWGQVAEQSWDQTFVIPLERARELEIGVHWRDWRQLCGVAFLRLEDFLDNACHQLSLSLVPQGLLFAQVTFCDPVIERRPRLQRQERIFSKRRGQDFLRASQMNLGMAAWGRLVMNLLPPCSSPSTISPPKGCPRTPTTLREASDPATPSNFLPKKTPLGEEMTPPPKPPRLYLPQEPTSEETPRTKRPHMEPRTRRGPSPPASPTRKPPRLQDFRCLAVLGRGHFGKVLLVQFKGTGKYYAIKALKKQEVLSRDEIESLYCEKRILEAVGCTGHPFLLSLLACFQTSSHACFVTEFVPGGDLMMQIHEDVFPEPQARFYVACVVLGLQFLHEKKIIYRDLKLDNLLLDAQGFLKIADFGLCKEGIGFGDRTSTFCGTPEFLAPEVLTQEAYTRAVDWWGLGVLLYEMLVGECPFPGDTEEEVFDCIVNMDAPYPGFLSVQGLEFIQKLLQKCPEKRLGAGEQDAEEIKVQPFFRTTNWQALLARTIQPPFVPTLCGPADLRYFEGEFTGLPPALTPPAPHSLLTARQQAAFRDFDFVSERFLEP
Chain of STK32B (human) (Q9NY57 whole entry, looked up): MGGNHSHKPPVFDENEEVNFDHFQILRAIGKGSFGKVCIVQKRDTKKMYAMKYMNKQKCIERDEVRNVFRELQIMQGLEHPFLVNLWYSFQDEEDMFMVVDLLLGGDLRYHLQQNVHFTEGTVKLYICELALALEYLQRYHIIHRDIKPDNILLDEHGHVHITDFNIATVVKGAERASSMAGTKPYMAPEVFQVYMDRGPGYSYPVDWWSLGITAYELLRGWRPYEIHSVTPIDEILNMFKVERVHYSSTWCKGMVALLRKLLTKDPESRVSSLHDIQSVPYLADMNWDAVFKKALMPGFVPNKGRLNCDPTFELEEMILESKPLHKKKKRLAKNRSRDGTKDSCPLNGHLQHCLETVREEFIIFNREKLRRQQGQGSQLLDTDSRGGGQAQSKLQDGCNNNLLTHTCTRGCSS
Chain of MAPKAPK2 (human) (P49137 whole entry, looked up): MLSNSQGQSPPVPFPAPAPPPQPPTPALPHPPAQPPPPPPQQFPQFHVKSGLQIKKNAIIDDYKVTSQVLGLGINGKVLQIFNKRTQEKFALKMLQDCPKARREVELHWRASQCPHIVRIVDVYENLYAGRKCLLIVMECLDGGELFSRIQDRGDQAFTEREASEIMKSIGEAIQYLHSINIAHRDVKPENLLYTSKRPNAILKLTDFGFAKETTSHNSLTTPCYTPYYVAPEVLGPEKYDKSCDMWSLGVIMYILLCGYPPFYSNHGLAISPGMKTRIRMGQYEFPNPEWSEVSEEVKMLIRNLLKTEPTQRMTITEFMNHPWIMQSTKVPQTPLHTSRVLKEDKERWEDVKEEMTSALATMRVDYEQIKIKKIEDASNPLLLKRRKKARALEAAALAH
Chain of SRPK1 (human) (Q96SB4 whole entry, looked up): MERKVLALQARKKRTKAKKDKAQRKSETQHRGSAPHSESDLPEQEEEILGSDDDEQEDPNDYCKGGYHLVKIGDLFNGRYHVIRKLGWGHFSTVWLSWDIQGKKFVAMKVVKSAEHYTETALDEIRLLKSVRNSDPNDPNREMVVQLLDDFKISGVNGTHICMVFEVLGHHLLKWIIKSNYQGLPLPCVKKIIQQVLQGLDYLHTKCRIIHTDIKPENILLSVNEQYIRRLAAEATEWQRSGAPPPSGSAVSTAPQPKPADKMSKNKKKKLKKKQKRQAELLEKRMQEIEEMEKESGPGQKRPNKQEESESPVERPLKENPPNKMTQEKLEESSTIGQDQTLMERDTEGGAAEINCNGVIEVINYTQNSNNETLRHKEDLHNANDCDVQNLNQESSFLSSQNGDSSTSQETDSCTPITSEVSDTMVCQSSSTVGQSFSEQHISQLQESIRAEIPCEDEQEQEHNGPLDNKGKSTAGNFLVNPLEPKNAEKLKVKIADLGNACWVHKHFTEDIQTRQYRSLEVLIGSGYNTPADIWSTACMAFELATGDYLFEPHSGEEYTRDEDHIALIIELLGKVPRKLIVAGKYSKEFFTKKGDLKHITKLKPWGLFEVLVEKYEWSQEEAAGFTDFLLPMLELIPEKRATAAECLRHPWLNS

Cn1c2ccccc2c2c3c(c4c5ccccc5n(CCC#N)c4c21)CNC3=O
kinase still bound, per cent of control (MAP4K1 (human)): 33%
kinase still bound, per cent of control (TGFBR1 (human)): 79%
kinase still bound, per cent of control (NEK7 (human)): 100%
kinase still bound, per cent of control (SYK (human)): 2.4%
kinase still bound, per cent of control (MAST1 (human)): 100%
kinase still bound, per cent of control (CaMK1 (human)): 76%
kinase still bound, per cent of control (CDC42BPA (human)): 94%
kinase still bound, per cent of control (PLK3 (human)): 100%
kinase still bound, per cent of control (PKN3 (M.tuberculosis)): 100%
kinase still bound, per cent of control (RET (human)): 0.6%
kinase still bound, per cent of control (CAMK4 (human)): 100%
kinase still bound, per cent of control (MAPKAPK2 (human)): 100%
kinase still bound, per cent of control (STK25 (human)): 100%
kinase still bound, per cent of control (CSNK1G3 (human)): 84%
kinase still bound, per cent of control (TNK1 (human)): 2%
kinase still bound, per cent of control (AXL (human)): 72%
kinase still bound, per cent of control (RPS6KA4 KD1 (human)): 46%
kinase still bound, per cent of control (SRPK2 (human)): 9.2%
kinase still bound, per cent of control (DYRK1A (human)): 6.4%
kinase still bound, per cent of control (KDR (human)): 82%
kinase still bound, per cent of control (INSR (human)): 84%
kinase still bound, per cent of control (STK32B (human)): 100%
kinase still bound, per cent of control (CSNK1E (human)): 100%
kinase still bound, per cent of control (CAMK2B (human)): 63%
kinase still bound, per cent of control (PTK6 (human)): 77%
kinase still bound, per cent of control (LTK (human)): 4.2%
kinase still bound, per cent of control (MAP2K5 (human)): 58%
kinase still bound, per cent of control (DAPK2 (human)): 61%
kinase still bound, per cent of control (SRPK1 (human)): 5.6%
kinase still bound, per cent of control [1]: 100%
kinase still bound, per cent of control (PTK2 (human)): 73%
kinase still bound, per cent of control (MAP3K10 (human)): 98%
kinase still bound, per cent of control (TBK1 (human)): 92%
kinase still bound, per cent of control (DAPK3 (human)): 75%
kinase still bound, per cent of control (PIM2 (human)): 100%
kinase still bound, per cent of control (MARK4 (human)): 72%
kinase still bound, per cent of control (DMPK (human)): 100%
kinase still bound, per cent of control (EPHB3 (human)): 85%
kinase still bound, per cent of control (MAP4K5 (human)): 7.8%
kinase still bound, per cent of control (KIT (human)): 81%
kinase still bound, per cent of control (CSNK1G2 (human)): 94%
kinase still bound, per cent of control (ADCK3 (human)): 100%
